Tested on: PC3 cells
Assay: NAMPT Cell Proliferation Assay
Type: cell-based
Settings: Homo sapiens, PC-3, 120 h, 5 days incubation, cell viability by Cell Titer Glo
In short: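 Seeded at 500 cells/well in RPMI with 10% heat-inactivated FBS and left to attach overnight at 37° C, 5% CO2. Compounds were added as 10-fold dilutions […] for 5 days, then viability was read by CellTiter-Glo. IC50s came from sigmoidal fits of percent inhibition.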

IC50 [nM] | Compound
8.53 | CCCC(C)C(=O)N1CCC(c2ccc(NC(=O)[C@H]3CCN(c4cccnn4)C3)cc2)CC1 (stereo partly drawn) [Example 670, (3S)-N-{4-[1-(2-methylpentanoyl)piperidin-4-yl]phenyl}-1-(pyridazin-3-yl)pyrrolidine-3-carboxamide]
7.92 | CC(C)(C)Cn1cnc(-c2ccc(NC(=O)C3CN(c4cccnn4)C3)cc2)c1 [Example 804, N-{4-[1-(2,2-dimethylpropyl)-1H-imidazol-4-yl]phenyl}-1-(pyridazin-3-yl)azetidine-3-carboxamide]
5.73 | O=C(Nc1ccc(C2CCN(C(=O)CCS(=O)(=O)c3ccccc3)CC2)cc1)[C@H]1CCN(c2cccnn2)C1 [Example 647, (3S)-N-(4-{1-[3-(phenylsulfonyl)propanoyl]piperidin-4-yl}phenyl)-1-(pyridazin-3-yl)pyrrolidine-3-carboxamide]
853 | O=C(Nc1ccc(C2CCN(C(=O)c3ccccc3F)CC2)cc1)C1CCN(c2cccnn2)CC1 [Example 627, N-{4-[1-(2-fluorobenzoyl)piperidin-4-yl]phenyl}-1-(pyridazin-3-yl)piperidine-4-carboxamide]
92.6 | O=C(Nc1ccc(OC2CCN(C(=O)CC3CC3)CC2)cc1)[C@H]1CCN(c2cccnc2)C1 [Example 16, (3S)-N-(4-{[1-(cyclopropylacetyl)piperidin-4-yl]oxy}phenyl)-1-(pyridin-3-yl)pyrrolidine-3-carboxamide]
2.35 | CO[C@H](C(=O)N1CCC(c2ccc(NC(=O)C3CN(c4cccnn4)C3)cc2)CC1)c1ccccc1 [Example 420, N-(4-{1-[(2S)-2-methoxy-2-phenylacetyl]piperidin-4-yl}phenyl)-1-(pyridazin-3-yl)azetidine-3-carboxamide]
247 | O=C(Nc1ccc(C2CCN(C(=O)c3ccc(F)cc3)CC2)cc1)C1CN(c2ccc(F)nn2)C1 [Example 823, N-{4-[1-(4-fluorobenzoyl)piperidin-4-yl]phenyl}-1-(6-fluoropyridazin-3-yl)azetidine-3-carboxamide]
2.35 | CC(C)(C)CC(=O)N1CCC(c2ccc(NC(=O)C3CN(c4cccnn4)C3)c(F)c2)CC1 [Example 835, N-{4-[1-(3,3-dimethylbutanoyl)piperidin-4-yl]-2-fluorophenyl}-1-(pyridazin-3-yl)azetidine-3-carboxamide]
107 | O=C(Nc1ccc(OC2CCN(C(=O)c3ccc(F)c(F)c3)CC2)cc1)C1CN(c2ccnnc2)C1 [Example 274, N-(4-{[1-(3,4-difluorobenzoyl)piperidin-4-yl]oxy}phenyl)-1-(pyridazin-4-yl)azetidine-3-carboxamide]
11.7 | O=C(Nc1ccc(OC2CCN(C(=O)C3CCCCC3)CC2)cc1)[C@H]1CCN(c2cccnn2)C1 [Example 796, (3S)—N-(4-{[1-(cyclohexylcarbonyl)piperidin-4-yl]oxy}phenyl)-1-(pyridazin-3-yl)pyrrolidine-3-carboxamide]
4.06 | COCCn1nc(C(C)(C)C)cc1-c1ccc(NC(=O)C2CN(c3cccnn3)C2)cc1 [Example 865, N-{4-[3-tert-butyl-1-(2-methoxyethyl)-1H-pyrazol-5-yl]phenyl}-1-(pyridazin-3-yl)azetidine-3-carboxamide]
62.7 | O=C(Nc1ccc(OC2CCN(C(=O)C3CCC(F)(F)CC3)CC2)cc1)C1CN(c2ccnnc2)C1 [Example 270, N-[4-({1-[(4,4-difluorocyclohexyl)carbonyl]piperidin-4-yl}oxy)phenyl]-1-(pyridazin-4-yl)azetidine-3-carboxamide]
97.4 | O=C(Nc1ccc(OC2CN(C(=O)c3ccc(F)cc3)C2)cc1)C1CN(c2ccnnc2)C1 [Example 199, N-(4-{[1-(4-fluorobenzoyl)azetidin-3-yl]oxy}phenyl)-1-(pyridazin-4-yl)azetidine-3-carboxamide]
6.56 | O=C(Nc1ccc(O[C@@H]2CCN(C(=O)c3ccccc3F)C2)cc1)C1CN(c2ccnnc2)C1 [Example 472, N-(4-{[(3R)-1-(2-fluorobenzoyl)pyrrolidin-3-yl]oxy}phenyl)-1-(pyridazin-4-yl)azetidine-3-carboxamide]

The remaining lines, values behind:

Compound | IC50 [nM]
O=C(Nc1ccc(S(=O)(=O)C2CCN(C(=O)CC3CC3)CC2)cc1)C1CN(c2cccnn2)C1 [Example 569, N-(4-{[1-(cyclopropylacetyl)piperidin-4-yl]sulfonyl}phenyl)-1-(pyridazin-3-yl)azetidine-3-carboxamide] | 207
O=C(Nc1ccc(C2CCN(C(=O)C3CC3)CC2)cc1)C1CN(c2cccnn2)C1 [Example 411, N-{4-[1-(cyclopropylcarbonyl)piperidin-4-yl]phenyl}-1-(pyridazin-3-yl)azetidine-3-carboxamide] | 7.15
CO[C@@H](C(=O)N1CCC(c2ccc(NC(=O)[C@H]3CCN(c4cccnn4)C3)cc2)CC1)c1ccccc1 [Example 634, (3S)-N-(4-{1-[(2R)-2-methoxy-2-phenylacetyl]piperidin-4-yl}phenyl)-1-(pyridazin-3-yl)pyrrolidine-3-carboxamide] | 9.22
O=C(Nc1ccc(C2CCN(C(=O)c3cc(Cl)ccc3Cl)CC2)cc1)C1CN(c2cccnn2)C1 [Example 363, N-{4-[1-(2,5-dichlorobenzoyl)piperidin-4-yl]phenyl}-1-(pyridazin-3-yl)azetidine-3-carboxamide] | 5.6
O=C(Nc1ccc(C2CCN(C(=O)c3ccc(F)c(F)c3)CC2)cc1)C1CN(c2ccnnc2)C1 [Example 533, N-{4-[1-(3,4-difluorobenzoyl)piperidin-4-yl]phenyl}-1-(pyridazin-4-yl)azetidine-3-carboxamide] | 24.6
O=C(Nc1ccc(C2CCN(C(=O)c3cc(F)cc(F)c3)CC2)cc1)C1CN(c2cccnn2)C1 [Example 400, N-{4-[1-(3,5-difluorobenzoyl)piperidin-4-yl]phenyl}-1-(pyridazin-3-yl)azetidine-3-carboxamide] | 6.8
O=C(Nc1ccc(OC2CCN(C(=O)c3ccc(C(F)(F)F)cc3)CC2)cc1)C1CN(c2cccnn2)C1 [Example 237, 1-(pyridazin-3-yl)-N-[4-({1-[4-(trifluoromethyl)benzoyl]piperidin-4-yl}oxy)phenyl]azetidine-3-carboxamide] | 10.3
O=C(Nc1ccc(C2CCN(C(=O)Cc3ccc4ccccc4c3)CC2)cc1)[C@H]1CCN(c2cccnn2)C1 [Example 646, (3S)-N-{4-[1-(naphthalen-2-ylacetyl)piperidin-4-yl]phenyl}-1-(pyridazin-3-yl)pyrrolidine-3-carboxamide] | 58.7
CN(C)CCC(=O)N1CCC(Oc2ccc(NC(=O)C3CN(c4cccnc4)C3)cc2)CC1 [Example 67, N-(4-{[1-(N,N-dimethyl-beta-alanyl)piperidin-4-yl]oxy}phenyl)-1-(pyridin-3-yl)azetidine-3-carboxamide] | 386
O=C(Nc1ccc(C2CCN(C(=O)c3ccccc3)CC2)cc1)C1CN(c2ccc(F)nn2)C1 [Example 818, N-[4-(1-benzoylpiperidin-4-yl)phenyl]-1-(6-fluoropyridazin-3-yl)azetidine-3-carboxamide] | 29.4
O=C(Nc1ccc(O[C@@H]2CCN(C(=O)Cc3ccc(OC(F)(F)F)cc3)C2)cc1)C1CN(c2cccnn2)C1 [Example 488, 1-(pyridazin-3-yl)-N-(4-{[(3R)-1-{[4-(trifluoromethoxy)phenyl]acetyl}pyrrolidin-3-yl]oxy}phenyl)azetidine-3-carboxamide] | 64.2
Cc1ccc(C(=O)N2CCC(S(=O)(=O)c3ccc(NC(=O)C4CN(c5cccnn5)C4)cc3)CC2)cc1 [Example 567, N-(4-{[1-(4-methylbenzoyl)piperidin-4-yl]sulfonyl}phenyl)-1-(pyridazin-3-yl)azetidine-3-carboxamide] | 76.5
CC(C)C(=O)N1CCC(S(=O)(=O)c2ccc(NC(=O)C3CN(c4cccnn4)C3)cc2)CC1 [Example 598, N-(4-{[1-(2-methylpropanoyl)piperidin-4-yl]sulfonyl}phenyl)-1-(pyridazin-3-yl)azetidine-3-carboxamide] | 208
CC1(C(=O)N2CCC(c3ccc(NC(=O)C4CN(c5cccnn5)C4)c(F)c3)CC2)CC1 [Example 861, N-(2-fluoro-4-{1-[(1-methylcyclopropyl)carbonyl]piperidin-4-yl}phenyl)-1-(pyridazin-3-yl)azetidine-3-carboxamide] | 7.58
CC(C)(O)C(=O)N1CCC(c2ccc(NC(=O)[C@H]3CCN(c4ccnnc4)C3)cc2)CC1 [Example 141, (3S)—N-{4-[1-(2-hydroxy-2-methylpropanoyl)piperidin-4-yl]phenyl}-1-(pyridazin-4-yl)pyrrolidine-3-carboxamide] | 834
O=C(Nc1ccc(C2CCN(C(=O)c3ccccc3F)CC2)cc1)C1CN(c2cccnn2)C1 [Example 428, N-{4-[1-(2-fluorobenzoyl)piperidin-4-yl]phenyl}-1-(pyridazin-3-yl)azetidine-3-carboxamide] | 0.19
Cc1ncccc1N1CC(C(=O)Nc2ccc(C3CCN(C(=O)C(C)C)CC3)cc2)C1 [Example 29, N-{4-[1-(2-methylpropanoyl)piperidin-4-yl]phenyl}-1-(2-methylpyridin-3-yl)azetidine-3-carboxamide] | 135
CC(C)(C)CC(=O)N1CCC(Oc2ccc(NC(=O)C3CN(c4ccnnc4)C3)cc2)CC1 [Example 260, N-(4-{[1-(3,3-dimethylbutanoyl)piperidin-4-yl]oxy}phenyl)-1-(pyridazin-4-yl)azetidine-3-carboxamide] | 74.6
O=C(Nc1ccc(S(=O)(=O)C2CCN(C(=O)c3cccc(F)c3)CC2)cc1)C1CN(c2cccnn2)C1 [Example 583, N-(4-{[1-(3-fluorobenzoyl)piperidin-4-yl]sulfonyl}phenyl)-1-(pyridazin-3-yl)azetidine-3-carboxamide] | 87.4
Cc1ccccc1C(=O)N1CCC(c2ccc(NC(=O)C3CN(c4cccnn4)C3)cc2)CC1 [Example 429, N-{4-[1-(2-methylbenzoyl)piperidin-4-yl]phenyl}-1-(pyridazin-3-yl)azetidine-3-carboxamide] | 0.8
